How the values were obtained:
HACLHs = target: T1, HACLHs (Homo sapiens, UniProt Q9UJ83); experiment: Aldehyde and ketone screen with HACLHs (carboligation with formyl-CoA, LC-MS of CoA esters); assay type: biochemical; details: 10 mM aldehyde, 1 mM formyl-CoA, 5 μM enzyme, 1 h, relative to the comparison of OXC and HACL, n.d. = product not detected
T1 construct: His-tag (from vector pET-16b); made in house; host or cells: E. coli ArcticExpress (DE3)
Protocol: Samples were diluted 1:10 in H2O. […] Standard injection volume was 1 μl.
0.5 mM ADP, 0.15 mM ThDP.

OXCMe = OXCMe aldehyde and ketone screen (carboligation with formyl-CoA, LC-MS of CoA esters); details: 10 mM aldehyde, 1 mM formyl-CoA, 5 μM enzyme, 1 h, relative to the comparison of OXC and HACL, n.d. = product not detected
Protocol: Samples were diluted 1:10 in H2O. UPLC-high resolution MS of CoA esters was performed as described previously.^[5] CoA esters were analyzed using an Agilent 6550 iFunnel Q-TOF LC-MS system equipped with an electrospray ionization source set to positive ionization mode. Compounds were separated on a RP-18 column (50 mm×2.1 mm, particle size 1.7 μm, Kinetex EVO C18, Phenomenex) using a mobile phase system comprised of 50 mM ammonium formate pH 8.1 (A) and methanol (B). Chromatographic separation was carried out using the following gradient condition at a flow rate of 250 μl/min: 0 min 2.5% B; 2.5 min 2.5% B; 8 min 23% B; 10 min 80% B; 11 min 80%; 12 min 2.5% B; 12.5 min 0% B. The column oven was set to 40° C. and autosampler was maintained at 10° C. Standard injection volume was 1 μl. Capillary voltage was set at 3.5 kV and nitrogen gas was used as nebulizing (20 psig), drying (13 l/min, 225° C.) and sheath gas (12 l/min, 400° C.). […] The scan range for MS and MS/MS data is 100-1000 m/z and 50-1000 m/z respectively. Collision energy used for MS/MS fragmentation was 35 eV.
Unless noted otherwise, all LC-MS assays were carried out at 30° C. in reaction buffer consisting of 50 mM TES-KOH pH 6.8, 10 mM MgCl2. 0.5 mM ADP, 0.15 mM ThDP.
In reaction buffer, 1 mM formyl-CoA and 10 mM aldehyde (formaldehyde, acetaldehyde, glycolaldehyde, propionaldehyde, glyceraldehyde, glyoxylate, succinic semialdehyde, benzaldehyde, phenylacetaldehyde, and acetone) was mixed with 5 μM OXCMe or HACLHs. The reaction was stopped after 1 h and products analyzed with the CoA ester method described above.

[1] = system: OXS-OXCMe-Y497A-YciA cascade; assay type: biochemical; details: 25 mM aldehyde, 10 mM disodium oxalate, 10 mM ATP, OXS 5 μM, OXCMe-Y497A 5 μM, YciA 2 μM; chiral HPLC
Protocol: Samples were diluted 1:10 in H2O. UPLC-high resolution MS analyses were performed on an Agilent 6550 iFunnel QTOF LC/MS system equipped with an electrospray ionization source to negative ionization mode. The analytes were isocratically chromatographed on a chiral column (100 mm×2.1 mm, particle size 2.7 μm, Poroshell 120 Chiral-T, Agilent) kept at ambient temperature using a mobile phase system comprised of 30:70 20 mM ammonium formate pH 4/methanol at a flow rate of 250 μl/min for 10 min. Samples were held at 10° C. and injection volume was 1 μl. […] MS data were acquired with a scan range of 100-1100 m/z. For quantification the calculated m/z value of [M-H]^− was used to obtain the extracted ion count from the total ion count.
0.5 mM ADP, 0.15 mM ThDP, 0.5 mM CoA, 10 mM ATP, 25 mM benzaldehyde, 5 μM OXS, 5 μM OXC and 2 μM YciA. The reaction was started by adding 10 mM oxalate. As negative controls, YciA, OXS or OXC were omitted in separate reactions. Samples were taken after 0, 0.05, 0.25, 0.66, 1, 2, 3, 22 hours and analyzed with the LC-MS detection of mandelic acid derivatives.
The aldehyde substrate screen of the OXS-OXCMe-Y497A-YciA cascade was carried out as described above (example 13), except that the aromatic aldehydes were prepared as 33 mM stocks in 20 vol % DMSO and diluted to final concentration of 25 mM into the assay. Samples were analyzed with the mandelic acid derivatives method described above. Mandelic acid (3a), 4-chloromandelic acid (3c), 2-chloromandelic acid (3d) and 3-phenyllactic acid (3b) were quantified by comparison to commercial standards.

[2] = system: OXS-OXCMe-YciA cascade with FRC; experiment: OXS-OXCMe-Y497A-YciA cascade with FRC (α-hydroxy carboxylic acid from oxalate, one pot); assay type: biochemical; details: 2 μM FRC, 7.6 mM benzaldehyde or phenylacetaldehyde, 10 μM OXCMe-Y497A
Protocol: 0.5 mM ADP, 0.15 mM ThDP, 0.5 mM CoA, 10 mM ATP, 7.6 mM benzaldehyde or phenylacetaldehyde, 2 μM FRC, 2 μM YciA, 10 μM OXCMe-Y497A and 5 μM OXS. The reaction was started by adding 10 mM disodium oxalate. Samples were taken after 0, 15, 30, 60 min and analyzed with the mandelic acid derivatives method described above.
0.5 mM ADP, 0.15 mM ThDP, 0.5 mM CoA, 10 mM ATP, 7.6 mM benzaldehyde or phenylacetaldehyde, 2 μM FRC (Formyl-CoA:oxalate CoA-transferase from Oxalobacter formigenes EC 2.8.3.16), 2 μM YciA, 10 μM OXCMe-Y497A and 5 μM OXS were mixed and the reaction was initiated by the addition of 10 mM disodium oxalate. For the negative control FRC was omitted in a separate reaction. Samples were taken after 0, 15, 30, 60 min and analyzed with the mandelic acid derivatives method described above.

YciA = target: T2, YciA (Escherichia coli, UniProt P0A8Z0); experiment: YciA substrate screen (thioesterase activity towards oxalyl-CoA, formyl-CoA, mandelyl-CoA); assay type: biochemical, E. coli; details: 2 μM YciA, 0.5 mM CoA ester, 30° C., pH 6.8
T2 construct: His-tag (ASKA clone); made in house; host or cells: E. coli BL21 (DE3)
Protocol: 0.5 mM ADP, 0.15 mM ThDP and 25 mM benzaldehyde, 2 μM YciA (A) or no YciA (B). The reaction was started by adding either 0.5 mM formyl-CoA or 0.5 mM oxalyl-CoA or 0.5 mM mandelyl-CoA. Samples were taken after 0, 1, 5 and 30 minutes and analyzed with the LC-MS detection of CoA esters. CoA esters were quantified by comparison to synthetic standards of formyl-CoA, oxalyl-CoA and mandelyl-CoA, respectively. Error bars show standard deviation of two.
Thioesterase activity of YciA towards oxalyl-CoA, formyl-CoA and racemic mandelyl-CoA. […] 0.5 mM ADP, 0.15 mM ThDP and 25 mM benzaldehyde, 2 μM YciA (A) or no YciA (B). The reaction was started by adding either 0.5 mM formyl-CoA or 0.5 mM oxalyl-CoA or 0.5 mM mandelyl-CoA. Samples were taken after 0, 1, 5 and 30 minutes and analyzed with the LC-MS detection of CoA esters. CoA esters were quantified by comparison to synthetic standards of formyl-CoA, oxalyl-CoA and mandelyl-CoA, respectively.

T1 sequence (Q9UJ83 whole entry): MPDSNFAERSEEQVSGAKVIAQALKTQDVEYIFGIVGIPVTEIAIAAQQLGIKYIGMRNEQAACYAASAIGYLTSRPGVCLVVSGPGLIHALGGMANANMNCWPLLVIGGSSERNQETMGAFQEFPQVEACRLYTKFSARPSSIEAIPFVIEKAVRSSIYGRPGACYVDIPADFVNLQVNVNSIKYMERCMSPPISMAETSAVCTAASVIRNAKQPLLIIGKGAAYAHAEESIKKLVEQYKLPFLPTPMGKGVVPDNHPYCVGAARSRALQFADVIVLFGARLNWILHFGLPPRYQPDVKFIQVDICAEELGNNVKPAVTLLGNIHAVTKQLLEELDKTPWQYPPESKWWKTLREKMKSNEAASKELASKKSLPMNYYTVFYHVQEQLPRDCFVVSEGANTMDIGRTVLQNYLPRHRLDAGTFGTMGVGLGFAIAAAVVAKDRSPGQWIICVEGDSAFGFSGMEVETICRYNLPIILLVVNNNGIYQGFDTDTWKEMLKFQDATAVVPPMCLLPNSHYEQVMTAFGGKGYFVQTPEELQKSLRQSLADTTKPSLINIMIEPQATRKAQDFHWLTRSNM
T2 sequence (P0A8Z0 whole entry): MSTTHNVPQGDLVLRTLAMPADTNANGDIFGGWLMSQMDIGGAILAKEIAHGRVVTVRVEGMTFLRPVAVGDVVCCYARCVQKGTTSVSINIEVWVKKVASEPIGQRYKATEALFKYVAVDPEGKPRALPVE

| HACLHs relative activity (HACLHs) | Structure (SMILES) | OXCMe relative activity (OXCMe) | Conversion [%] [1] | increase of product formation rate by addition of FRC [2] | thioesterase activity of YciA towards the CoA ester (YciA) |
| --- | --- | --- | --- | --- | --- |
| 100% | CCC(O)C(=O)SCCNC(=O)CCNC(=O)[C@H](O)C(C)(C)COP(=O)(O)OP(=O)(O)OC[C@H]1O[C@@H](n2cnc3c(N)ncnc32)[C@H](O)[C@@H]1OP(=O)(O)O (some centres unmarked) [2-hydroxybutyryl-CoA] | 5% |  |  |  |
|  | O=C(O)C(O)Cc1ccccc1 (racemic) [3-phenyllactic acid] |  | 58% | 2.3 fold |  |
|  | O=C(O)C(O)c1ccc(Cl)cc1 (racemic) [4-chloromandelic acid] |  | 57% |  |  |
| 100% | CC(O)C(=O)SCCNC(=O)CCNC(=O)[C@H](O)C(C)(C)COP(=O)(O)OP(=O)(O)OC[C@H]1O[C@@H](n2cnc3c(N)ncnc32)[C@H](O)[C@@H]1OP(=O)(O)O (some centres unmarked) [lactyl-CoA] | 74% |  |  |  |
|  | CC(C)(COP(=O)(O)OP(=O)(O)OC[C@H]1O[C@@H](n2cnc3c(N)ncnc32)[C@H](O)[C@@H]1OP(=O)(O)O)[C@@H](O)C(=O)NCCC(=O)NCCSC=O [formyl-CoA] |  |  |  | low activity |
|  | O=C(O)C(O)c1ccccc1 (centres unmarked) [mandelic acid] |  | 75% | 1.4 fold |  |
| 11% | CC(C)(COP(=O)(O)OP(=O)(O)OC[C@H]1O[C@@H](n2cnc3c(N)ncnc32)[C@H](O)[C@@H]1OP(=O)(O)O)[C@@H](O)C(=O)NCCC(=O)NCCSC(=O)CO [glycolyl-CoA] | 100% |  |  |  |
| 100% | CC(C)(COP(=O)(O)OP(=O)(O)OC[C@H]1O[C@@H](n2cnc3c(N)ncnc32)[C@H](O)[C@@H]1OP(=O)(O)O)[C@@H](O)C(=O)NCCC(=O)NCCSC(=O)C(O)CCC(=O)O (some centres unmarked) [2-hydroxyglutaryl-CoA] | 1% |  |  |  |
|  | O=C(O)[C@@H](O)c1ccccc1Cl [2-chloromandelic acid, (S)-2-chloromandelic acid] |  | 93% |  |  |
|  | CC(C)(COP(=O)(O)OP(=O)(O)OC[C@H]1O[C@@H](n2cnc3c(N)ncnc32)[C@H](O)[C@@H]1OP(=O)(O)O)[C@@H](O)C(=O)NCCC(=O)NCCSC(=O)C(=O)O [oxalyl-CoA] |  |  |  | no activity |
| 100% | CC(C)(COP(=O)(O)OP(=O)(O)OC[C@H]1O[C@@H](n2cnc3c(N)ncnc32)[C@H](O)[C@@H]1OP(=O)(O)O)[C@@H](O)C(=O)NCCC(=O)NCCSC(=O)C(O)CO (some centres unmarked) [glyceryl-CoA] | 1% |  |  |  |

| Structure (SMILES) | HACLHs relative activity (HACLHs) | OXCMe relative activity (OXCMe) | Conversion [%] [1] | increase of product formation rate by addition of FRC [2] | thioesterase activity of YciA towards the CoA ester (YciA) |
| --- | --- | --- | --- | --- | --- |
| CC(C)(COP(=O)(O)OP(=O)(O)OCC1OC(n2cnc3c(N)ncnc32)C(O)C1OP(=O)(O)O)C(O)C(=O)NCCC(=O)NCCSC(=O)C(O)Cc1ccccc1 (centres unmarked) [phenyllactyl-CoA] | 100% | 22% |  |  |  |
| CC(C)(COP(=O)(O)OP(=O)(O)OC[C@H]1O[C@@H](n2cnc3c(N)ncnc32)[C@H](O)[C@@H]1OP(=O)(O)O)[C@@H](O)C(=O)NCCC(=O)NCCSC(=O)C(O)c1ccccc1 (some centres unmarked) [mandelyl-CoA] | 3% | 100% |  |  | relatively high |

Source: patent US20220315968A1, “PEPTIDES AND METHODS FOR THE CARBON-CARBON BOND FORMATION” (Max-Planck-Gesellschaft zur Förderung der Wissenschaften …, priority 2019, published 2022)
